Patent US3948911A, “Substituted quinoxaline-2-carboxamide 1,4-dioxides” (Pfizer Inc., priority 1974, dated 1976)
In brackets after ≈: the same amount, converted by molar mass. Where two headings read alike, the source gives them in different places.

What was measured:
Strep. pyogenes [1] = assay: in vitro antibacterial activity, two-fold serial dilution in Brain-Heart Infusion Broth, MIC; format: cell-based; details: overnight, anaerobic; for MIC: Streptococcus pyogenes
Method: (§1) The broth is inoculated with bacteria and with the test quinoxaline-1,4-dioxide and then it is incubated overnight under anerobic conditions. On the next day, the test is read visually. The minimum inhibitory concentration (MIC) of the test compound is the lowest concentration which prevents turbidity, i.e., which prevents growth of the microorganism.
(§2) In vitro and in vivo activity of representative compounds of this invention, determined as aforesaid, are reported in the following tabulation for compounds of the formula: ##SPC3##

E. coli [2] = assay: as above; format: cell-based; details: for MIC: Escherichia coli, read-out: IN VITRO MIC E. coli
Method: as §1, §2

Strep. pyogenes [3] = assay: in vivo activity in mice infected with a lethal inoculum, survivors; details: for IN VIVO Survivors (PO) Strep. pyogenes / IN VIVO Survivors-SC Strep. pyogenes / responders at 50 mg/kg: 50 mg./kg., survivors/treated mice; for responders at 100 mg/kg / responders at 50 mg/kg: Streptococcus pyogenes; for responders at 100 mg/kg: footnote (c): dosage = 100 mg./kg.
Method: (§3) In determining in vivo activity of the quinoxaline-1,4-dioxides of this invention, the test compound is administered to mice which have been infected by […] injection of a lethal inoculum of pathogenic bacteria. The test compound is administered using a multiple dosing regimen and using either the oral (PO) or the subcutaneous (SC) route. The inoculum of bacteria varies from about 1 to about 10 times the amount needed to kill 100% of the mice under the conditions of the test. At the end of the test, the activity of the compound is assessed by counting the number of survivors among the treated animals.
as §2

E. coli [4] = assay: as above; details: for IN VIVO Survivors-SC E. coli / responders at 25 mg/kg: subcutaneous; for IN VIVO Survivors-SC E. coli / responders at 25 mg/kg / IN VIVO Survivors (PO) E. coli: 25 mg./kg., survivors/treated mice
Method: as §3, §2

[5] = Brain-Heart Infusion Broth, overnight, anaerobic
[6] = sc, subcutaneous, read-out: IN VIVO Survivors-SC Strep. pyogenes (converted)
[7] = oral, read-out: IN VIVO Survivors (PO) Strep. pyogenes (converted)

For “6-(7)-Formyl-N-(2-Hydroxyethyl)-3-Methyl-2-Quinoxalinecarboxamide 1,4-Dioxide Ethylene Acetal [NHCH2 CH2 OH 6(7)-OO.angle.C.angle.H CH3]”, the “IN VITRO MIC Strep. pyogenes” value (Strep. pyogenes [1]) was 0.781 µg/mL, the “IN VITRO MIC E. coli” value (E. coli [2]; [5]) was 25 µg/mL and the “IN VIVO Survivors (PO) Strep. pyogenes” value (Strep. pyogenes [3]; oral) was 3/10. For the same molecule, the “IN VIVO Survivors-SC Strep. pyogenes” value (Strep. pyogenes [3]; subcutaneous) was 2/10 and the “IN VIVO Survivors-SC E. coli” value (E. coli [4]) was 3/10.

`CC(=O)c1ccc2c(c1)[n+]([O-])c(C)c(C(=O)N(C)C)[n+]2[O-]` [N(CH3)2 6-COCH3 CH3] gave an MIC (Strep. pyogenes [1]) of 6.25 µg/mL (≈ 21.6 µM), an MIC (E. coli [2]) of 6.25 µg/mL (≈ 21.6 µM) and a responders at 100 mg/kg (Strep. pyogenes [3]; sc, subcutaneous, read-out: IN VIVO Survivors-SC Strep. pyogenes) of 60%. For the same molecule, the responders at 100 mg/kg (Strep. pyogenes [3]; oral, read-out: IN VIVO Survivors (PO) Strep. pyogenes) was 50%, the responders at 25 mg/kg (E. coli [4]; Escherichia coli, sc) was 20% and the “IN VIVO Survivors (PO) E. coli” value (E. coli [4]) was 0/5.

Work on `CC(=O)c1ccc2c(c1)[n+]([O-])c(C(=O)N(C)C)c(C)[n+]2[O-]` [N(CH3)2 7-COCH3 CH3] yielded an MIC (Strep. pyogenes [1]) of 6.25 µg/mL (≈ 21.6 µM), an MIC (E. coli [2]; [5]) of 6.25 µg/mL (≈ 21.6 µM) and a responders at 50 mg/kg (Strep. pyogenes [3]; [6]) of 60%. It also gave a responders at 50 mg/kg (Strep. pyogenes [3]; [7]) of 20% and a responders at 25 mg/kg (E. coli [4]; Escherichia coli, sc) of 0%.

In the case of `CC(=O)c1ccc2c(c1)[n+]([O-])c(C)c(C(N)=O)[n+]2[O-]` [NH2 6-COCH3 CH3, 6- and 7-Acetyl-3-Methyl-2-Quinoxalinecarboxamide 1,4-dioxide], the MIC (Strep. pyogenes [1]) is reported as < 0.391 µg/mL, the MIC (E. coli [2]; [5]) is reported as < 0.391 µg/mL and the responders at 50 mg/kg (Strep. pyogenes [3]; [6]) is reported as 100%. For the same molecule, the responders at 50 mg/kg (Strep. pyogenes [3]; [7]) was 90%, the responders at 25 mg/kg (E. coli [4]; Escherichia coli, sc) was 100% and the “IN VIVO Survivors (PO) E. coli” value (E. coli [4]) was 5/5.

In the case of `CC(=O)c1ccc2c(c1)[n+]([O-])c(C(N)=O)c(C)[n+]2[O-]` [NH2 7-COCH3 CH3, 6- and 7-Acetyl-3-Methyl-2-Quinoxalinecarboxamide 1,4-dioxide], the MIC (Strep. pyogenes [1]) is reported as 0.391 µg/mL (≈ 1.5 µM), the MIC (E. coli [2]; [5]) is reported as < 0.391 µg/mL and the responders at 50 mg/kg (Strep. pyogenes [3]; [6]) is reported as 100%. The responders at 50 mg/kg (Strep. pyogenes [3]; [7]) was 80% and the responders at 25 mg/kg (E. coli [4]; Escherichia coli, sc) was 100%.

In the case of `Cc1c(C(N)=O)[n+]([O-])c2cc(C3(C)OCCO3)ccc2[n+]1[O-]` [NH2 7-OO.angle.C.angle.CH3 CH3], the MIC (Strep. pyogenes [1]) is reported as 12.5 µg/mL (≈ 40.9 µM), the MIC (E. coli [2]; [5]) is reported as 12.5 µg/mL (≈ 40.9 µM) and the responders at 50 mg/kg (Strep. pyogenes [3]; [6]) is reported as 80%. The responders at 50 mg/kg (Strep. pyogenes [3]; [7]) was 80%, the responders at 25 mg/kg (E. coli [4]; Escherichia coli, sc) was 100% and the “IN VIVO Survivors (PO) E. coli” value (E. coli [4]) was 3/5.

For `CC(=O)c1ccc2c(c1)[n+]([O-])c(C)c(C(=O)NCCO)[n+]2[O-]` [NHCH2 CH2 OH 6-COCH3 CH3], the MIC (Strep. pyogenes [1]) was < 0.391 µg/mL, the MIC (E. coli [2]; [5]) was < 0.391 µg/mL and the responders at 50 mg/kg (Strep. pyogenes [3]; [6]) was 50%. The responders at 50 mg/kg (Strep. pyogenes [3]; [7]) was 20% and the responders at 100 mg/kg (E. coli [4]; Escherichia coli, sc, read-out: IN VIVO Survivors-SC E. coli) was 30%.

In the case of `CNC(=O)c1c(C)[n+]([O-])c2cc(C(C)=O)ccc2[n+]1[O-]` [NHCH3 6-COCH3 CH3], the MIC (Strep. pyogenes [1]) is reported as 0.781 µg/mL (≈ 2.84 µM), the MIC (E. coli [2]; [5]) is reported as < 0.391 µg/mL and the responders at 50 mg/kg (Strep. pyogenes [3]; [6]) is reported as 60%. For the same molecule, the responders at 50 mg/kg (Strep. pyogenes [3]; [7]) was 40%, the responders at 25 mg/kg (E. coli [4]; Escherichia coli, sc) was 80% and the “IN VIVO Survivors (PO) E. coli” value (E. coli [4]) was 7/10.

With `CNC(=O)c1c(C)[n+]([O-])c2ccc(CO)cc2[n+]1[O-]` [NHCH3 7-CH2 OH CH3] the MIC (Strep. pyogenes [1]) was > 200 µg/mL, the MIC (E. coli [2]; [5]) was 6.25 µg/mL (≈ 23.7 µM) and the responders at 50 mg/kg (Strep. pyogenes [3]; [6]) was 20%. It also gave a responders at 50 mg/kg (Strep. pyogenes [3]; [7]) of 10% and a responders at 25 mg/kg (E. coli [4]; Escherichia coli, sc) of 90%.

Work on `CNC(=O)c1c(C)[n+]([O-])c2ccc(C(C)=O)cc2[n+]1[O-]` [NHCH3 7-COCH3 CH3] yielded an MIC (Strep. pyogenes [1]) of 0.391 µg/mL (≈ 1.42 µM), an MIC (E. coli [2]; [5]) of 0.391 µg/mL (≈ 1.42 µM) and a responders at 50 mg/kg (Strep. pyogenes [3]; [6]) of 50%. The responders at 50 mg/kg (Strep. pyogenes [3]; [7]) was 90% and the responders at 25 mg/kg (E. coli [4]; Escherichia coli, sc) was 60%.

In the case of “Ethyl 6(7)-Hydroxymethyl-3-Methyl-2-Quinoxaline-Carboxylate 1,4-Dioxide [OCH2 CH3 6(7)-CH2 OH CH3]”, the “IN VITRO MIC Strep. pyogenes” value (Strep. pyogenes [1]) is reported as 25 µg/mL, the “IN VITRO MIC E. coli” value (E. coli [2]; [5]) is reported as 25 µg/mL and the “IN VIVO Survivors (PO) Strep. pyogenes” value (Strep. pyogenes [3]; oral) is reported as 5/10. The “IN VIVO Survivors-SC Strep. pyogenes” value (Strep. pyogenes [3]; subcutaneous) was 6/10 and the “IN VIVO Survivors-SC E. coli” value (E. coli [4]) was 4/10.

For “N,3-Dimethyl-6(7)-Hydroxymethyl-2-Quinoxalinecarboxamide 1,4-Dioxide [NHCH3 6(7)-CH2 OH CH3]”, the “IN VITRO MIC Strep. pyogenes” value (Strep. pyogenes [1]) was 50 µg/mL, the “IN VITRO MIC E. coli” value (E. coli [2]; [5]) was 25 µg/mL and the “IN VIVO Survivors (PO) Strep. pyogenes” value (Strep. pyogenes [3]; oral) was 3/10. The “IN VIVO Survivors-SC Strep. pyogenes” value (Strep. pyogenes [3]; subcutaneous) was 3/10 and the “IN VIVO Survivors-SC E. coli” value (E. coli [4]) was 8/10.

“N-Methyl-6(7)-Hydroxymethyl-2-Quinoxalinecarboxamide 1,4-Dioxide [NHCH3 6(7)-CH2 OH H]” was tested, and the “IN VITRO MIC Strep. pyogenes” value (Strep. pyogenes [1]) was 0.781 µg/mL, the “IN VITRO MIC E. coli” value (E. coli [2]; [5]) was 1.562 µg/mL and the “IN VIVO Survivors (PO) Strep. pyogenes” value (Strep. pyogenes [3]; oral) was 6/10. The “IN VIVO Survivors-SC Strep. pyogenes” value (Strep. pyogenes [3]; subcutaneous) was 10/10 and the “IN VIVO Survivors-SC E. coli” value (E. coli [4]) was 4/10.
